The source of these data is PMC7507803 (ACS Pharmacology & Translational Science, 2020).

One series has as its system prostasin. Particulars: cited from earlier work.
Series [1] has as its target Recombinant Human TMPRSS2 (Homo sapiens, UniProt O15393). The series can be described thus: TMPRSS2 fluorogenic biochemical assay.
For series [2] the following is noted: cited from earlier work.
Another series relates to TMPRSS2 (aa 148–492). Particulars: TMPRSS2 biochemical screen; cited from earlier work.
Series [3] concerns SARS-CoV-2-S-mediated pseudotyped particle entry. Particulars: cited from earlier work.
Another series has as its system SARS-CoV. Particulars: mouse, in vivo; cited from earlier work.
For the next series, the system named is trypsin. Particulars: cited from earlier work.

Residues, ends and D or L forms follow the SMILES beside them. *: point of attachment. AMC = Cc1cc(=O)oc2cc(N*)ccc12; Boc = CC(C)(C)OC(=O)*

Recombinant Human TMPRSS2, sequence (O15393 106-492): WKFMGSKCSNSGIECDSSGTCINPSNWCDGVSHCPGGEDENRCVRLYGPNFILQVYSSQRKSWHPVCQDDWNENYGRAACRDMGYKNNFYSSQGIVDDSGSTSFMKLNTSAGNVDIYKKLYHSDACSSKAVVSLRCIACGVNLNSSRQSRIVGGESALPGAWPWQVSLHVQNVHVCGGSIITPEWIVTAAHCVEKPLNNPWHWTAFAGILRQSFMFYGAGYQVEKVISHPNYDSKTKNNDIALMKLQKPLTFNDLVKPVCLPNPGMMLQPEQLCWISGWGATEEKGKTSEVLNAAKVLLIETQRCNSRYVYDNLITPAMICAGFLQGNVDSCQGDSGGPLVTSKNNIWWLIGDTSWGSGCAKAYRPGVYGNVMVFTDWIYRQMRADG

In the case of `N=C(N)Nc1ccc(C(=O)O)cc1` [4-guanidinobenzoic acid], in the series on prostasin, the inhibition of prostasin result was “do not inhibit”.

As to `N=C(N)c1ccc2cc(O)ccc2c1` [6-amidino-2-naphthol], the inhibition of prostasin entry with prostasin is “do not inhibit”.

In the case of `Cc1cc(=O)oc2cc(NC(=O)[C@H](CCCNC(=N)N)NC(=O)[C@H](C)NC(=O)[C@H](CCC(N)=O)NC(=O)OC(C)(C)C)ccc12` [Boc-Gln-Ala-Arg-AMC] (Boc-Gln-Ala-Arg-{AMC}), in series [1] (60 min, peptide 10 μM, TMPRSS2 1 μM, Tris-HCl pH8), the “released AMC” value is recorded as 27%.

On to `N=C(N)Nc1ccc(C(=O)Oc2ccc(CC(=O)O)cc2)cc1` [FOY-251, 4-(4-guanidinobenzoyloxy)phenylacetic acid], for which the mean terminal half-life in series [2] is 60 min.

As to `Nc1c(Br)cc(Br)cc1CN[C@H]1CC[C@H](O)CC1` [ambroxol], the TMPRSS2 inhibition result in series [1] (40 μM, data not shown) is recorded as “did not show any TMPRSS2 inhibition”.

As a reminder, the IC50 is the midpoint of a concentration-inhibition curve. With `CN(Cc1cc(Br)cc(Br)c1N)C1CCCCC1` [bromhexine], the “inhibition of TMPRSS2” value in series [1] (dose–response, listed as Bromhexine hydrochloride) is “no inhibition”. In the series with TMPRSS2 (aa 148–492), the concentration for half-maximal inhibition (IC50) is 0.75 µM. Also, in series [3], the “inhibition of pseudotyped particle entry” value is recorded as “lack of inhibiting SARS-CoV-2-S-mediated pseudotyped particle entry”.

For `CN(C)C(=O)COC(=O)Cc1ccc(OC(=O)c2ccc(NC(=N)N)cc2)cc1` [camostat], the “t1/2 of hydrolysis in plasma” value in series [2] (plasma) is below 1 min. Besides, the SARS-CoV pathogenesis result with SARS-CoV is reported as “mitigated SARS-CoV pathogenesis”. Also, the IC50 with trypsin was around 0.05 µM.

On to `N=C(N)c1ccc2cc(OC(=O)c3ccc(N=C(N)N)cc3)ccc2c1` [nafamostat], for which the “plasma half-life (t1/2)” value in series [2] (IV infusion) was “about 23 min”.
